How the values were obtained:
B2 bradykinin receptor = target: T1, B2 bradykinin receptor (Homo sapiens, UniProt P30411); format: cell membranes, Membrane; settings: chem-1; note: in other assays of this panel Not Active means under 50% inhibition at 10 µM
T1 sequence (P30411 whole entry): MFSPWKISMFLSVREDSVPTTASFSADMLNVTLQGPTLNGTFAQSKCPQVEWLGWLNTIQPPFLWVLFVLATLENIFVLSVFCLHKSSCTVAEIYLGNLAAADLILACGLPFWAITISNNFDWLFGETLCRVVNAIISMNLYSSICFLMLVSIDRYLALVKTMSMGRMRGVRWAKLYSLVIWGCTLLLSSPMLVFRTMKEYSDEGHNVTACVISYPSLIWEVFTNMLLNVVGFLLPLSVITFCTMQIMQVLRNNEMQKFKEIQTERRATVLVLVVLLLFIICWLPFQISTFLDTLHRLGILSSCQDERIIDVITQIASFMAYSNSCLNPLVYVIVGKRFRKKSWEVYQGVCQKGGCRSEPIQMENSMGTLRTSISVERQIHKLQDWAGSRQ

[1] = DRUGMATRIX: Sodium/nucleoside co-transporter radioligand binding (ligand: nitrobenzylthioinosine); format: cell membranes, Cavia porcellus, Dunkin-Hartley, Cerebral cortex, Membrane; settings: Not Active = under 50% inhibition at 10 µM
[2] = target: Tyrosine-protein kinase Lck (Homo sapiens, UniProt P06239); experiment: DRUGMATRIX: Protein Tyrosine Kinase, LCK enzyme inhibition (substrate: Poly(Glu:Tyr)); format: cell-based, Insect cells; settings: insect cells, Not Active = under 50% inhibition at 10 µM
[3] = target: Matrix metalloproteinase-9 (Homo sapiens, UniProt P14780); experiment: biochemical; format: cell-based;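 note: inhibition of isolated MMP-9 enzyme activity toward a synthetic peptide substrate, from the DrugMatrix protease screening panel; in other assays of this panel Not Active means under 50% inhibition at 10 µM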
[4] = DRUGMATRIX: Glutamate, NMDA, Agonism radioligand binding (ligand: [3H] CGP-39653); format: cell membranes, Rattus norvegicus, Wistar, Cerebral cortex, Membrane; settings: Not Active = under 50% inhibition at 10 µM
[5] = DRUGMATRIX: Serotonin (5-Hydroxytryptamine) 5-HT3 radioligand binding (ligand: [3H] GR-65630); format: cell membranes, Membrane; settings: hek293; Not Active = under 50% inhibition at 10 µM
[6] = DRUGMATRIX: Calcium Channel Type L, Benzothiazepine radioligand binding (ligand: [3H] Diltiazem); format: cell membranes, Rattus norvegicus, Wistar, Brain, Membrane; settings: Not Active = under 50% inhibition at 10 µM

Sequence of Tyrosine-protein kinase Lck (P06239 whole entry): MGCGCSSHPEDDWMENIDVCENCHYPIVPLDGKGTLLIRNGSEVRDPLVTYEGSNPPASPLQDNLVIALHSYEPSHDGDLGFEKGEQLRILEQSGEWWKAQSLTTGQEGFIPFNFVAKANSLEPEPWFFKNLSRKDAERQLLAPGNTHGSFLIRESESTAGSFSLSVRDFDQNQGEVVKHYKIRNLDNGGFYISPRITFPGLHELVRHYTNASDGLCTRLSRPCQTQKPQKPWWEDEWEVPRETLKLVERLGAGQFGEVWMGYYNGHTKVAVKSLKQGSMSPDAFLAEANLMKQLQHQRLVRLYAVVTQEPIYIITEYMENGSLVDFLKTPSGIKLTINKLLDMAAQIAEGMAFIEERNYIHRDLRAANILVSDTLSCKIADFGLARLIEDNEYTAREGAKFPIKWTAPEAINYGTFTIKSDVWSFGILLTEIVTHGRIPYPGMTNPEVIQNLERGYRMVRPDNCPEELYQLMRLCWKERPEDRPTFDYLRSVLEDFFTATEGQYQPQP
Sequence of Matrix metalloproteinase-9 (P14780 whole entry): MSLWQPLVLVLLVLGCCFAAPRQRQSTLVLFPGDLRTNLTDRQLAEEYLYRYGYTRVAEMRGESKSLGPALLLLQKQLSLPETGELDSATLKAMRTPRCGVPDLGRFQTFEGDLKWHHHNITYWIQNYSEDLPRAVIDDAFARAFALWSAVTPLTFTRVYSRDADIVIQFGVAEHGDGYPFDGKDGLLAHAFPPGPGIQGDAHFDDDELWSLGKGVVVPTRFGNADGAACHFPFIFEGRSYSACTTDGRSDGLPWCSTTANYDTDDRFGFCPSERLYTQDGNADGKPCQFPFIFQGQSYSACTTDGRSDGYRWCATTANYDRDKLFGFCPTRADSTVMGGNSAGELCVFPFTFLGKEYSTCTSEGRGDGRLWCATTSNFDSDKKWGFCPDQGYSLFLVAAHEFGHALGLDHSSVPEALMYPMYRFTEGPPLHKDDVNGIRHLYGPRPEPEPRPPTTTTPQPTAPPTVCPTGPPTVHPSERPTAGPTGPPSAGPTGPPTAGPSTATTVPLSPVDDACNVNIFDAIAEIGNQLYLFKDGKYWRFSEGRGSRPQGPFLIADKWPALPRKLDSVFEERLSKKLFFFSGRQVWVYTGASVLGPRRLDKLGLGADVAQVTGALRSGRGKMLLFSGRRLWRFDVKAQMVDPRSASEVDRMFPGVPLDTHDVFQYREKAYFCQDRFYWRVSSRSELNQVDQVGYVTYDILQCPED

Compound	IC50 (B2 bradykinin receptor)	IC50 [1]	Ki [1]	IC50 [2]	IC50 [3]	IC50 [4]	Ki [4]	IC50 [5]	Ki [5]	IC50 [6]	Ki [6]	Ki (B2 bradykinin receptor)	Ki [2]	Ki [3]	IC50 ([2]; read-out: IC50)
COc1ccc(Cc2nccc3cc(OC)c(OC)cc23)cc1OC [PAPAVERINE]	Not Active	Not Active	Not Active	Not Active	Not Active	Not Active	Not Active	Not Active	Not Active	Not Active	Not Active	–	–	–	–
OCCN1CCN(CCCN2c3ccccc3Sc3ccc(Cl)cc32)CC1 [PERPHENAZINE]	Not Active	Not Active	Not Active	Not Active	Not Active	Not Active	Not Active	Not Active	Not Active	Not Active	Not Active	–	–	–	–
CCCCC1C(=O)N(c2ccccc2)N(c2ccccc2)C1=O [PHENYLBUTAZONE]	Not Active	Not Active	Not Active	Not Active	Not Active	Not Active	Not Active	Not Active	Not Active	Not Active	Not Active	–	–	–	–
Cc1cccc(Nc2cc(Cl)nc(SCC(=O)O)n2)c1C [PIRINIXIC ACID]	Not Active	Not Active	Not Active	Not Active	Not Active	Not Active	Not Active	Not Active	Not Active	Not Active	Not Active	–	–	–	–
CC[C@H](C)C(=O)O[C@H]1C[C@H](O)C=C2C=C[C@H](C)[C@H](CC[C@@H](O)C[C@@H](O)CC(=O)O)[C@H]21 [PRAVASTATIN]	Not Active	Not Active	Not Active	Not Active	Not Active	Not Active	Not Active	Not Active	Not Active	Not Active	Not Active	–	–	–	–
CC(C)(Sc1cc(C(C)(C)C)c(O)c(C(C)(C)C)c1)Sc1cc(C(C)(C)C)c(O)c(C(C)(C)C)c1 [PROBUCOL]	Not Active	Not Active	Not Active	Not Active	Not Active	Not Active	Not Active	Not Active	Not Active	Not Active	Not Active	–	–	–	–
COBALT(II) ACETYLACETONATE	Not Active	Not Active	Not Active	Not Active	Not Active	Not Active	Not Active	Not Active	Not Active	Not Active	Not Active	Not Active	Not Active	Not Active	–
INSULIN HUMAN	Not Active	Not Active	Not Active	–	Not Active	Not Active	Not Active	Not Active	Not Active	Not Active	Not Active	Not Active	–	Not Active	18.1 µM
POLYVINYL ALCOHOL	Not Active	Not Active	Not Active	Not Active	Not Active	Not Active	Not Active	Not Active	Not Active	Not Active	Not Active	Not Active	Not Active	Not Active	–
